Our source for the TGI and GI50 values is PubChem BioAssay (NCI).

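Briefly, cells in 96-well plates were exposed to five compound concentrations for 48 h, and endpoints were estimated by linear interpolation. GI50 marks 50% less growth. TGI denotes the concentration required for complete inhibition of growth.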 Where a SMILES comes first, the peptide text is derived from it. [ ]: non-standard residue; d: D form. Ac5c = NC1(C(=O)O)CCCC1

Test systems include NCI-H226 lung; HOP-62 NSCLC; M14 melanoma; 786-0 renal; U251 CNS; SK-MEL-28 melanoma; SNB-19 CNS; SF-268 CNS.
Holding throughout (test): NCI tumour cell line growth inhibition, 48 h

For the compound `CC(=O)CC(=O)Nc1ccc2ccccc2c1`, the TGI with NCI-H226 lung, with HOP-62 NSCLC, in the test with M14 melanoma, in the test on 786-0 renal, in the test on U251 CNS and in the test on SK-MEL-28 melanoma was above 100 µM each time. For the same compound, the TGI in the test with SNB-19 CNS and with SF-268 CNS was above 100 µM each time.

As for `NC1(C(=O)NC2(C(=O)O)CCCC2)CCCC1` (H-[Ac5c]-[Ac5c]-OH), the TGI in the test on NCI-H226 lung, in the test with HOP-62 NSCLC, in the test on M14 melanoma, in the test with 786-0 renal, in the test with U251 CNS and with SK-MEL-28 melanoma was above 100 µM each time. Moreover, the TGI with SNB-19 CNS and in the test with SF-268 CNS was above 100 µM in each case.

`Cn1ccnc1CC(C)(O)c1ccccc1` (centres undefined): the TGI with NCI-H226 lung, in the test with HOP-62 NSCLC, in the test with M14 melanoma, with 786-0 renal, in the test with U251 CNS and with SK-MEL-28 melanoma was above 100 µM each time. Moreover, the TGI in the test with SNB-19 CNS and in the test with SF-268 CNS was above 100 µM throughout.

Consider `COc1cc(C(=O)/C(C)=C/c2c[nH]c3ccccc23)cc(OC)c1OC`, for which the TGI in the test with NCI-H226 lung is above 100 µM; in the test on HOP-62 NSCLC, 11.9 µM; in the test with M14 melanoma it was 1.89 µM; in the test with 786-0 renal, above 100 µM; with U251 CNS, 10.6 µM; in the test on SNB-19 CNS it was above 100 µM. This compound came in with a TGI with SF-268 CNS of 10.6 µM. Moreover, the GI50 with HOP-62 NSCLC was 0.00541 µM; in the test on M14 melanoma it was 0.00338 µM; with 786-0 renal, 0.00639 µM; in the test on U251 CNS it was 0.00436 µM; with SK-MEL-28 melanoma, 0.0175 µM; in the test on SNB-19 CNS, 0.00406 µM. Besides, the GI50 in the test on SF-268 CNS is 0.00544 µM.

As to `COc1cc(Nc2nccc(Nc3ccc4c(C)[nH]nc4c3)n2)cc(OC)c1OC`, the GI50 in the test on NCI-H226 lung is 1.01 µM; in the test on HOP-62 NSCLC, 1.08 µM; in the test on M14 melanoma, 1.35 µM; in the test on 786-0 renal, 2.93 µM; in the test with U251 CNS, 3.92 µM; in the test with SK-MEL-28 melanoma, 3.28 µM. The GI50 in the test on SNB-19 CNS was 4.91 µM; with SF-268 CNS, 2.42 µM. Besides, the TGI amounted to 7.1 µM in the test on NCI-H226 lung; 8.34 µM in the test with HOP-62 NSCLC; 5.37 µM with M14 melanoma; 9.7 µM in the test with 786-0 renal; 17.8 µM in the test with U251 CNS; 14.4 µM in the test with SK-MEL-28 melanoma. The TGI in the test on SNB-19 CNS is 19.9 µM; with SF-268 CNS, 7.89 µM.

As to `Nc1ccc(N(S(=O)(=O)c2ccccc2)S(=O)(=O)c2ccccc2)c(Cl)c1`, the TGI in the test on NCI-H226 lung, in the test with HOP-62 NSCLC, in the test on M14 melanoma, in the test with 786-0 renal, in the test with U251 CNS and with SK-MEL-28 melanoma was above 100 µM in each case. The TGI in the test with SNB-19 CNS and in the test with SF-268 CNS was above 100 µM in each case.

As for `COc1ccc(CN(C)c2ccc(CO)c(Cl)c2)cc1`, the GI50 with NCI-H226 lung was 0.125 µM; in the test on HOP-62 NSCLC it was 7.58 µM; in the test with M14 melanoma it was 22.7 µM; with 786-0 renal, 13.7 µM; in the test with U251 CNS it was 4.05 µM; with SK-MEL-28 melanoma, 24.6 µM. Further, the values for the GI50 in the test on SNB-19 CNS and in the test on SF-268 CNS were 34 µM and 33.4 µM, respectively. Moreover, the TGI was 0.279 µM in the test on NCI-H226 lung; above 100 µM with HOP-62 NSCLC; above 95.5 µM with M14 melanoma; above 66.4 µM in the test on 786-0 renal; above 87.3 µM in the test with U251 CNS; above 100 µM in the test with SK-MEL-28 melanoma. Further, the TGI in the test with SNB-19 CNS and in the test on SF-268 CNS was above 100 µM throughout.

For `CC[C@H](NC(=O)[C@H](C)NC)C(=O)N1C[C@@H](O)C[C@H]1Cc1c(-c2[nH]c3cc(F)ccc3c2C[C@@H]2C[C@H](O)CN2C(=O)[C@H](CC)NC(=O)[C@H](C)NC)[nH]c2cc(F)ccc12`, the GI50 with NCI-H226 lung is above 100 µM; with HOP-62 NSCLC, 27.5 µM; with M14 melanoma it was above 100 µM; in the test with 786-0 renal, above 100 µM; with U251 CNS, 93.2 µM; in the test with SK-MEL-28 melanoma, above 100 µM. Further, the GI50 in the test with SNB-19 CNS and with SF-268 CNS was above 100 µM throughout. The TGI in the test on NCI-H226 lung, in the test with HOP-62 NSCLC, with M14 melanoma, in the test on 786-0 renal, with U251 CNS and with SK-MEL-28 melanoma was above 100 µM in each case. Also, the TGI in the test with SNB-19 CNS and with SF-268 CNS was above 100 µM throughout.

Take `C=C1C(=O)C23CC1C[C@H](OC(C)=O)[C@H]2C1(C)C(OC(C)=O)C[C@H](O)C(C)(C)[C@H]1C(=O)[C@@H]3OC(C)=O` (some centres undefined): the TGI was 43.3 µM in the test on NCI-H226 lung; 42.9 µM with HOP-62 NSCLC; 9.5 µM in the test with M14 melanoma; 9.64 µM in the test with 786-0 renal; 29.3 µM in the test on U251 CNS; 13.2 µM in the test on SK-MEL-28 melanoma. In addition, the TGI with SNB-19 CNS turned out to be 34.6 µM; with SF-268 CNS, 25.3 µM.

Turning to `CC(=O)[O-].CC(=O)[O-].[Pt+2].c1cscn1.c1cscn1`, the GI50 in the test with NCI-H226 lung is above 100 µM; in the test on HOP-62 NSCLC, above 100 µM; with M14 melanoma, above 100 µM; in the test with 786-0 renal, above 100 µM; in the test with U251 CNS it was 54.5 µM; in the test on SK-MEL-28 melanoma, above 100 µM. Besides, the GI50 with SNB-19 CNS and with SF-268 CNS was above 100 µM in each case. The TGI in the test on NCI-H226 lung, with HOP-62 NSCLC, in the test on M14 melanoma, in the test on 786-0 renal, with U251 CNS and with SK-MEL-28 melanoma was above 100 µM in each case. Also, the TGI in the test on SNB-19 CNS and with SF-268 CNS was above 100 µM throughout.

In the case of `O=c1c2c(nc3n1CCS3)[nH]c1ccccc12`, the GI50 in the test on NCI-H226 lung was 70.3 µM; in the test on HOP-62 NSCLC it was above 100 µM; in the test with M14 melanoma it was above 100 µM; in the test with 786-0 renal, above 100 µM; in the test on U251 CNS, above 100 µM; in the test with SK-MEL-28 melanoma, 90.3 µM. Also, the GI50 in the test on SNB-19 CNS and in the test on SF-268 CNS was above 100 µM in each case. The TGI in the test with NCI-H226 lung, in the test on HOP-62 NSCLC, in the test on M14 melanoma, in the test with 786-0 renal, in the test with U251 CNS and with SK-MEL-28 melanoma was above 100 µM each time. Besides, the TGI with SNB-19 CNS and in the test on SF-268 CNS was above 100 µM throughout.
